According to patent US20210045385A1, “PYRIDAZINONE-SUBSTITUTED KETOXIMES AS HERBICIDES” (FMC Corporation, priority 2018, published 2021):

Experiments:
Type in all cases: in vivo
[1] = tested on: ragweed (common ragweed, Ambrosia artemisiifolia); experiment: Test C preemergence, visual plant response rating; conditions: Test C, 0 is no effect, 100 is complete control
Method in brief: (§1)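 Compounds in a non-phytotoxic solvent with surfactant were applied as a directed soil spray preemergence or to 2–10 cm, one- to two-leaf plants postemergence, in loam–sand soil. After about 10 d in a greenhouse, injury was visually rated against untreated controls on a 0–100 scale (100 = complete control).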

[2] = tested on: foxtail, giant (giant foxtail, Setaria faberi); experiment: Test C preemergence, visual plant response rating; conditions: Test C, 0 is no effect, 100 is complete control
Method in brief: as §1

[3] = tested on: Italian ryegrass (Lolium mutiflorum); experiment: Test C preemergence, visual plant response rating; conditions: Test C, 0 is no effect, 100 is complete control
Method in brief: as §1

[4] = tested on: pigweed (Amaranthus retroflexus); experiment: Test C preemergence, visual plant response rating; conditions: Test C, 0 is no effect, 100 is complete control
Method in brief: as §1

kochia (Bassia scoparia) [5] = experiment: Test C preemergence, visual plant response rating; conditions: Test C, 0 is no effect, 100 is complete control
Method in brief: as §1

[6] = tested on: barnyardgrass (Echinochloa crus-galli); experiment: Test C preemergence, visual plant response rating; conditions: Test C, 0 is no effect, 100 is complete control
Method in brief: as §1

[7] = tested on: ragweed (common ragweed, Ambrosia artemisiifolia); experiment: Test C postemergence, visual plant response rating
Method in brief: as §1

[8] = tested on: foxtail, giant (giant foxtail, Setaria faberi); experiment: Test C postemergence, visual plant response rating
Method in brief: as §1

[9] = tested on: blackgrass (Alopecurus myosuroides); experiment: Test C postemergence, visual plant response rating
Method in brief: as §1

[10] = tested on: Italian ryegrass (Lolium mutiflorum); experiment: Test C postemergence, visual plant response rating
Method in brief: as §1

[11] = tested on: pigweed (Amaranthus retroflexus); experiment: Test C postemergence, visual plant response rating
Method in brief: as §1

[12] = tested on: galium (catchweed bedstraw, Galium aparine); experiment: Test C postemergence, visual plant response rating
Method in brief: as §1

kochia (Bassia scoparia) [13] = experiment: Test C postemergence, visual plant response rating
Method in brief: as §1

[14] = tested on: wheat (Triticum aestivum); experiment: Test C postemergence, visual plant response rating
Method in brief: as §1

corn (Zea mays) = experiment: Test C postemergence, visual plant response rating
Method in brief: as §1

[15] = tested on: barnyardgrass (Echinochloa crus-galli); experiment: Test C postemergence, visual plant response rating
Method in brief: as §1

[16] = tested on: sedge umbrella (small-flower umbrella sedge, Cyperus difformis); experiment: Test D flooded paddy test, visual plant response rating; conditions: 250 g ai/ha, scale 0 to 100 (0 no effect, 100 complete control), 13 to 15 d
Method in brief: (§2)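 2-leaf plants, flooded 3 cm, cpd into paddy water; greenhouse 13–15 d; visual rating vs controls, 0 = no effect, 100 = complete control; dash = no result.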

rice (Oryza sativa) = experiment: as above; conditions: 250 g ai/ha, scale 0 to 100 (0 no effect, 100 complete control), 13 to 15 d
Method in brief: as §2

[17] = tested on: duck salad (Heteranthera limosa); experiment: as above; conditions: 250 g ai/ha, scale 0 to 100 (0 no effect, 100 complete control), 13 to 15 d
Method in brief: as §2

[18] = tested on: barnyardgrass (Echinochloa crus-galli); experiment: as above; conditions: 250 g ai/ha, scale 0 to 100 (0 no effect, 100 complete control), 13 to 15 d
Method in brief: as §2

[19] = Test C, postemergence, 125 g ai/ha

## CON=C(c1cc(Cl)cc(Cl)c1Cl)c1c(O)c(C)nn(C)c1=O [Compound 214]
[1]; 31 g ai/ha
  Ragweed plant response rating (0 to 100 scale): 20
[1]; 125 g ai/ha
  Ragweed plant response rating (0 to 100 scale): 100
[2]; 31 g ai/ha
  Foxtail, Giant plant response rating (0 to 100 scale): 80
[2]; 125 g ai/ha
  Foxtail, Giant plant response rating (0 to 100 scale): 100
[3]; 31 g ai/ha
  Ryegrass, Italian plant response rating (0 to 100 scale): 90
[3]; 125 g ai/ha
  Ryegrass, Italian plant response rating (0 to 100 scale): 100
[4]; 31 g ai/ha
  Pigweed plant response rating (0 to 100 scale): 80
[4]; 125 g ai/ha
  Pigweed plant response rating (0 to 100 scale): 100
Kochia (Bassia scoparia) [5]; 31 g ai/ha
  Kochia plant response rating (0 to 100 scale): 20
Kochia (Bassia scoparia) [5]; 125 g ai/ha
  Kochia plant response rating (0 to 100 scale): 70
[6]; 31 g ai/ha
  Barnyardgrass plant response rating (0 to 100 scale): 70
[6]; 125 g ai/ha
  Barnyardgrass plant response rating (0 to 100 scale): 90
[7]; Postemergence, 31 g ai/ha
  Ragweed plant response rating (0 to 100 scale): 80
[7]; [19]
  Ragweed plant response rating (0 to 100 scale): 90
[8]; Postemergence, 31 g ai/ha
  Foxtail, Giant plant response rating (0 to 100 scale): 80
[8]; [19]
  Foxtail, Giant plant response rating (0 to 100 scale): 80
[9]; Postemergence, 31 g ai/ha
  Blackgrass plant response rating (0 to 100 scale): 30
[9]; [19]
  Blackgrass plant response rating (0 to 100 scale): 80
[10]; Postemergence, 31 g ai/ha
  Ryegrass, Italian plant response rating (0 to 100 scale): 80
[10]; [19]
  Ryegrass, Italian plant response rating (0 to 100 scale): 100
[11]; Postemergence, 31 g ai/ha
  Pigweed plant response rating (0 to 100 scale): 80
[11]; [19]
  Pigweed plant response rating (0 to 100 scale): 90
[12]; Postemergence, 31 g ai/ha
  Galium plant response rating (0 to 100 scale): 90
[12]; [19]
  Galium plant response rating (0 to 100 scale): 90
Kochia (Bassia scoparia) [13]; Postemergence, 31 g ai/ha
  Kochia plant response rating (0 to 100 scale): 70
Kochia (Bassia scoparia) [13]; [19]
  Kochia plant response rating (0 to 100 scale): 80
[14]; Postemergence, 31 g ai/ha
  Wheat plant response rating (0 to 100 scale): 40
[14]; [19]
  Wheat plant response rating (0 to 100 scale): 70
Corn (Zea mays); Postemergence, 31 g ai/ha
  Corn plant response rating (0 to 100 scale): 30
Corn (Zea mays); [19]
  Corn plant response rating (0 to 100 scale): 40
[15]; Postemergence, 31 g ai/ha
  Barnyardgrass plant response rating (0 to 100 scale): 70
[15]; [19]
  Barnyardgrass plant response rating (0 to 100 scale): 80
[16]
  Plant response rating, Sedge, Umbrella (Flood): 70
Rice (Oryza sativa)
  Plant response rating, Rice (Flood): 45
[17]
  Plant response rating, Ducksalad (Flood): 70
[18]
  Plant response rating, Barnyardgrass (Flood): 70
